According to PubChem BioAssay AID2060893 (Molecular Pharmacology Branch, DTP, NCI, 2025):

Tested on: K86415-001-R-J1-PDC complex spheroids, viability
Assay: Anticancer human tumor K86415-001-R-J1-PDC patient-derived lung adenocarcinoma cell line growth inhibition [RAS]
Conditions: for IC50: curve of first compound; for viability, T/C: stronger effect = lower value
How it was run: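 Tumour cells grown as complex spheroids with HUVEC endothelial cells and mesenchymal stem cells, treated with RAS pathway inhibitor combinations. Each agent spans half-log steps from near clinical Cmax, or 10 microM where Cmax is unknown.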

[1] = second compound 0.000949 µM, first compound 0.0316 µM
[2] = second compound 0.000949 µM, first compound 0.1 µM
[3] = second compound 0.000949 µM, first compound 0.316 µM
[4] = second compound 0.000949 µM, first compound 1 µM
[5] = second compound 0.000949 µM, first compound 3.16 µM
[6] = second compound 0.000949 µM, first compound 10 µM
[7] = second compound 0.003 µM, first compound 0.0316 µM
[8] = second compound 0.003 µM, first compound 0.1 µM
[9] = second compound 0.003 µM, first compound 0.316 µM
[10] = second compound 0.003 µM, first compound 1 µM
[11] = second compound 0.003 µM, first compound 3.16 µM
[12] = second compound 0.003 µM, first compound 10 µM
[13] = second compound 0.00949 µM, first compound 0.0316 µM
[14] = second compound 0.00949 µM, first compound 0.1 µM
[15] = second compound 0.00949 µM, first compound 0.316 µM
[16] = second compound 0.00949 µM, first compound 1 µM
[17] = second compound 0.00949 µM, first compound 3.16 µM
[18] = second compound 0.00949 µM, first compound 10 µM
[19] = second compound 0.03 µM, first compound 0.0316 µM
[20] = second compound 0.03 µM, first compound 0.1 µM
[21] = second compound 0.03 µM, first compound 0.316 µM
[22] = second compound 0.03 µM, first compound 1 µM
[23] = second compound 0.03 µM, first compound 3.16 µM
[24] = second compound 0.03 µM, first compound 10 µM
[25] = second compound 0.0949 µM, first compound 0.0316 µM
[26] = second compound 0.0949 µM, first compound 0.1 µM
[27] = second compound 0.0949 µM, first compound 0.316 µM
[28] = second compound 0.0949 µM, first compound 1 µM
[29] = second compound 0.0949 µM, first compound 3.16 µM
[30] = second compound 0.0949 µM, first compound 10 µM
[31] = second compound 0.3 µM, first compound 0.0316 µM
[32] = second compound 0.3 µM, first compound 0.1 µM
[33] = second compound 0.3 µM, first compound 0.316 µM
[34] = second compound 0.3 µM, first compound 1 µM
[35] = second compound 0.3 µM, first compound 3.16 µM
[36] = second compound 0.3 µM, first compound 10 µM
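Further: spheroids exposed to agents for seven days before readout.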

CC1(O)CCCC1n1c(=O)c(C(F)F)cc2cnc(NC3CCN(S(C)(=O)=O)CC3)nc21 (centres undefined) + CCn1c(-c2cccnc2C(C)OC)c2c3cc(ccc31)N1CCOC(CC(NC(=O)C(C(C)C)N(C)C(=O)C3(F)CCN(C(=O)C#CC(C)(C)N(C)C)CC3)C(=O)N3CCCC(N3)C(=O)OCC(C)(C)C2)C1
IC50 (second compound 0.000949 µM): < 31.6 nM
IC50 (second compound 0.003 µM): < 31.6 nM
IC50 (second compound 0.00949 µM): < 31.6 nM
IC50 (second compound 0.03 µM): < 31.6 nM
IC50 (second compound 0.0949 µM): < 31.6 nM
IC50 (second compound 0.3 µM): < 31.6 nM
viability, T/C [1]: 30.1%
viability, T/C [2]: 32.6%
viability, T/C [3]: 21.6%
viability, T/C [4]: 38.8%
viability, T/C [5]: 48.3%
viability, T/C [6]: 4.79%
viability, T/C [7]: 12.8%
viability, T/C [8]: 11.3%
viability, T/C [9]: 14.8%
viability, T/C [10]: 17.3%
viability, T/C [11]: 25%
viability, T/C [12]: 4.45%
viability, T/C [13]: 13.9%
viability, T/C [14]: 10.5%
viability, T/C [15]: 12.7%
viability, T/C [16]: 18.9%
viability, T/C [17]: 19.8%
viability, T/C [18]: 4.71%
viability, T/C [19]: 13.7%
viability, T/C [20]: 13.3%
viability, T/C [21]: 14.6%
viability, T/C [22]: 15.6%
viability, T/C [23]: 18.1%
viability, T/C [24]: 4.45%
viability, T/C [25]: 11.3%
viability, T/C [26]: 15%
viability, T/C [27]: 11.6%
viability, T/C [28]: 20.2%
viability, T/C [29]: 14.9%
viability, T/C [30]: 5.12%
viability, T/C [31]: 13%
viability, T/C [32]: 14.5%
viability, T/C [33]: 12.7%
viability, T/C [34]: 14.6%
viability, T/C [35]: 17.6%
viability, T/C [36]: 3.94%

CCC(CC)c1cc(NC2CCC(N)C2)n2nccc2n1 (centres undefined) + CCn1c(-c2cccnc2C(C)OC)c2c3cc(ccc31)N1CCOC(CC(NC(=O)C(C(C)C)N(C)C(=O)C3(F)CCN(C(=O)C#CC(C)(C)N(C)C)CC3)C(=O)N3CCCC(N3)C(=O)OCC(C)(C)C2)C1
IC50 (second compound 0.000949 µM): 31.6 nM
IC50 (second compound 0.003 µM): < 31.6 nM
IC50 (second compound 0.00949 µM): < 31.6 nM
IC50 (second compound 0.03 µM): < 31.6 nM
IC50 (second compound 0.0949 µM): < 31.6 nM
IC50 (second compound 0.3 µM): < 31.6 nM
viability, T/C [1]: 37.5%
viability, T/C [2]: 40.4%
viability, T/C [3]: 39.2%
viability, T/C [4]: 61.9%
viability, T/C [5]: 2.95%
viability, T/C [6]: 2.43%
viability, T/C [7]: 14.9%
viability, T/C [8]: 14.6%
viability, T/C [9]: 13%
viability, T/C [10]: 20.1%
viability, T/C [11]: 3.32%
viability, T/C [12]: 3.8%
viability, T/C [13]: 15.2%
viability, T/C [14]: 12.3%
viability, T/C [15]: 15%
viability, T/C [16]: 20.3%
viability, T/C [17]: 2.22%
viability, T/C [18]: 3.83%
viability, T/C [19]: 12.6%
viability, T/C [20]: 12.1%
viability, T/C [21]: 15.5%
viability, T/C [22]: 13.3%
viability, T/C [23]: 1.81%
viability, T/C [24]: 3.54%
viability, T/C [25]: 12.4%
viability, T/C [26]: 13.6%
viability, T/C [27]: 15.6%
viability, T/C [28]: 13.9%
viability, T/C [29]: 1.94%
viability, T/C [30]: 3.52%
viability, T/C [31]: 11.8%
viability, T/C [32]: 14.9%
viability, T/C [33]: 12.4%
viability, T/C [34]: 9.04%
viability, T/C [35]: 2.28%
viability, T/C [36]: 3.42%
